± gives the expanded uncertainty stated by the source.
Details: Liquid, Dynamic light scattering

## CCCCCCCCCCCCCCCCCCCCCCCCCCCCCCCCCCCCCCCC [tetracontane]
448.09 K
  thermal diffusivity: 6.57e-08 ± 3.4e-09 m2/s
448.57 K
  thermal diffusivity: 6.73e-08 ± 4.3e-09 m2/s
473.26 K
  thermal diffusivity: 6.86e-08 ± 8e-09 m2/s

## CCCCCCCCCCCC [dodecane]
423.73 K
  thermal diffusivity: 5.83e-08 ± 3e-09 m2/s
448.23 K
  thermal diffusivity: 5.23e-08 ± 2.2e-09 m2/s
473.1 K
  thermal diffusivity: 4.87e-08 ± 2e-09 m2/s
498.16 K
  thermal diffusivity: 4.58e-08 ± 3.4e-09 m2/s
523.18 K
  thermal diffusivity: 4.25e-08 ± 2.6e-09 m2/s

Reference: the NIST ThermoML archive (doi:10.1021/acs.jced.5b00986)
